{
  "source": "patent US4371537A",
  "about": "“Sulfur-substituted phenoxypyridines having antiviral activity” (The Dow Chemical Company, priority 1981, dated 1983)",
  "key": {"Rhinovirus Type 56": {"test_system": "Rhinovirus Type 56", "assay": "Inhibition of cytopathic effect in WI-38 cell culture tubes, rhinovirus type 56", "type": "cell-based", "conditions": "Enterovirus, WI-38 cells, read-out: Inhibition grade, Rhinovirus Type 56", "protocol": "(§1) The test compound was dissolved in an appropriate solvent (generally dimethyl sulfoxide) and incubated at 56° C. for at least 15 minutes and this solution was then used to prepare various test solutions having the desired concentration of test compound in preheated WI maintenance medium (49% Eagles, 49% medium 199, 2% fetal calf serum and antibiotics).\n(§2) Triplicate cell culture tubes (WI-38 human embryonic lung cell culture tubes) were fed with 1 ml of medium containing the compound at specified concentrations and inoculated with 3-300 TCID50 (3-300 times the tissue culture infective dose 50, i.e., the dose required to infect 50% of the cell cultures tested). Simultaneous viral titrations were performed. The tissue cultures were supplemented with fresh medium when necessary (around 3-4 days) until viral titrations were completed.\n(§3) The cell culture tubes were examined dialy for cytopathic effect. […] Comparisons were made at that time with the percentage of cell sheet destruction in tubes containing virus compound mixtures. Observed differences of 75% or more were graded \"+\", 74-50% as \"±\", and less than 50% as \"-\" inhibition."}, "Rhinovirus Type 59": {"test_system": "Rhinovirus Type 59", "assay": "Inhibition of cytopathic effect in WI-38 cell culture tubes, rhinovirus type 59", "type": "cell-based", "conditions": "Enterovirus, WI-38 cells, read-out: Inhibition grade, Rhinovirus Type 59", "protocol": "as §1, §2, §3"}, "Rhinovirus Type 58": {"test_system": "Rhinovirus Type 58", "assay": "Inhibition of cytopathic effect in WI-38 cell culture tubes, rhinovirus type 58", "type": "cell-based", "conditions": "Enterovirus, WI-38 cells, read-out: Inhibition grade, Rhinovirus Type 58", "protocol": "as §1, §2, §3"}, "[1]": {"test_system": "Coxsackie A21 virus (Cox A21)", "assay": "Tissue culture testing, Coxsackie A21 virus in HeLa cells", "type": "cell-based", "conditions": "48 and 72 hours, NA = not active at the standard test conditions, read-out: Cox A21: lowest concentration of the compound necessary to cause a 50 percent reduction in cytopathic effect", "procedure,_shortened": "(§4)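 Reported figures give, in μg/ml, the minimum compound level required for the effect. HeLa monolayers are exposed to compound in serum-supplemented Eagle's medium before virus is added, alongside uninfected cell controls.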"}, "Rhinovirus Type 17": {"test_system": "Rhinovirus Type 17", "assay": "Inhibition of cytopathic effect in WI-38 cell culture tubes, rhinovirus type 17", "type": "cell-based", "conditions": "Enterovirus, WI-38 cells, read-out: Inhibition grade, Rhinovirus Type 17", "protocol": "as §1, §2, §3"}, "[2]": {"test_system": "rhinovirus type 64 (RV-64)", "assay": "Tissue culture testing, rhinovirus type 64 in HeLa cells", "type": "cell-based", "conditions": "Enterovirus, 48 and 72 hours, NA = not active at the standard test conditions, read-out: RV-64: lowest concentration of the compound necessary to cause a 50 percent reduction in cytopathic effect", "protocol": "Monolayered HeLa cells in 16 millimeter (mm) tissue culture dishes were treated with 1 ml of culture medium (Eagles medium supplemented with fetal calf serum) containing subject compound at an appropriate concentration or containing no compound at all. Culture media such as those described herein are more fully described in standard texts, as for example, Kuchler's Biochemical Methods in Cell Culture and Virology, Dowden, Hutchinson and Ross, Inc., Stroudsberg, PA (1977). Following treatment, cells were challenged with 0.05 ml of rhinovirus type 1A (RV-1A), rhinovirus type 2 (RV-2) or Coxsackie A21 virus (Cox A21) in culture medium. Some of the compounds were also tested against rhinovirus type 5 (RV-5), rhinovirus type 8 (RV-8) or rhinovirus type 64 (RV-64). Cell controls received no viruses.\n^2 Lowest concentration of the compound (μg/ml) necessary to cause"}, "Rhinovirus Type 64": {"test_system": "Rhinovirus Type 64", "assay": "Inhibition of cytopathic effect in WI-38 cell culture tubes, rhinovirus type 64", "type": "cell-based", "conditions": "Enterovirus, WI-38 cells, read-out: Inhibition grade, Rhinovirus Type 64", "protocol": "as §1, §2, §3"}, "Rhinovirus Type 21": {"test_system": "Rhinovirus Type 21", "assay": "Inhibition of cytopathic effect in WI-38 cell culture tubes, rhinovirus type 21", "type": "cell-based", "conditions": "Enterovirus, WI-38 cells, read-out: Inhibition grade, Rhinovirus Type 21", "protocol": "as §1, §2, §3"}, "Rhinovirus Type 81": {"test_system": "Rhinovirus Type 81", "assay": "Inhibition of cytopathic effect in WI-38 cell culture tubes, rhinovirus type 81", "type": "cell-based", "conditions": "Enterovirus, WI-38 cells, read-out: Inhibition grade, Rhinovirus Type 81", "protocol": "as §1, §2, §3"}, "Rhinovirus Type 4": {"test_system": "Rhinovirus Type 4", "assay": "Inhibition of cytopathic effect in WI-38 cell culture tubes, rhinovirus type 4", "type": "cell-based", "conditions": "Enterovirus, WI-38 cells, read-out: Inhibition grade, Rhinovirus Type 4", "protocol": "as §1, §2, §3"}, "Rhinovirus Type 75": {"test_system": "Rhinovirus Type 75", "assay": "Inhibition of cytopathic effect in WI-38 cell culture tubes, rhinovirus type 75", "type": "cell-based", "conditions": "Enterovirus, WI-38 cells, read-out: Inhibition grade, Rhinovirus Type 75", "protocol": "as §1, §2, §3"}, "Rhinovirus Type 6": {"test_system": "Rhinovirus Type 6", "assay": "Inhibition of cytopathic effect in WI-38 cell culture tubes, rhinovirus type 6", "type": "cell-based", "conditions": "Enterovirus, WI-38 cells, read-out: Inhibition grade, Rhinovirus Type 6", "protocol": "as §1, §2, §3"}, "Cox A21": {"test_system": "Cox A21", "assay": "Single Oral Dose test in mice challenged IP with Cox A21", "type": "in vivo, Swiss male mice", "conditions": "600 mg/kg P.O. 3 h after IP challenge; >3.84 significant (95% confidence level)", "procedure,_shortened": "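A single P.O. treatment with compound suspended in 0.5% hydroxypropyl methylcellulose was given 3 h after intraperitoneal Cox A21 challenge at a normally lethal dose in 8-12 g male Swiss mice. Survival followed 7-10 days; significance versus vehicle-treated infected mice by modified Mantel-Haenzel chi-square (>3.84, 95% level).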"}, "Rhinovirus Type 19": {"test_system": "Rhinovirus Type 19", "assay": "Inhibition of cytopathic effect in WI-38 cell culture tubes, rhinovirus type 19", "type": "cell-based", "conditions": "Enterovirus, WI-38 cells, read-out: Inhibition grade, Rhinovirus Type 19", "protocol": "as §1, §2, §3"}, "Rhinovirus Type 29": {"test_system": "Rhinovirus Type 29", "assay": "Inhibition of cytopathic effect in WI-38 cell culture tubes, rhinovirus type 29", "type": "cell-based", "conditions": "Enterovirus, WI-38 cells, read-out: Inhibition grade, Rhinovirus Type 29", "protocol": "as §1, §2, §3"}, "Hanks Untyped": {"test_system": "Hanks Untyped", "assay": "Inhibition of cytopathic effect in WI-38 cell culture tubes, Hanks Untyped", "type": "cell-based, rhinovirus", "conditions": "Enterovirus, WI-38 cells, read-out: Inhibition grade, Hanks Untyped", "protocol": "as §1, §2, §3"}, "[3]": {"test_system": "rhinovirus type 1A (RV-1A)", "assay": "Tissue culture testing, rhinovirus type 1A in HeLa cells", "type": "cell-based", "conditions": "Enterovirus, 48 and 72 hours, NA = not active at the standard test conditions, read-out: RV-1A: lowest concentration of the compound necessary to cause a 50 percent reduction in cytopathic effect", "procedure,_shortened": "as §4"}, "Rhinovirus Type 68": {"test_system": "Rhinovirus Type 68", "assay": "Inhibition of cytopathic effect in WI-38 cell culture tubes, rhinovirus type 68", "type": "cell-based", "conditions": "Enterovirus, WI-38 cells, read-out: Inhibition grade, Rhinovirus Type 68", "protocol": "as §1, §2, §3"}, "Rhinovirus Type 60": {"test_system": "Rhinovirus Type 60", "assay": "Inhibition of cytopathic effect in WI-38 cell culture tubes, rhinovirus type 60", "type": "cell-based", "conditions": "Enterovirus, WI-38 cells, read-out: Inhibition grade, Rhinovirus Type 60", "protocol": "as §1, §2, §3"}},
  "data": [
    {"smiles": "CS(=O)(=O)c1ccc(Oc2ccc(C(=O)c3ccccc3)cc2)nc1", "note": "[Example 31, (4-((5-(methylsulfonyl)-2-pyridinyl)oxy)phenyl)phenylmethanone]", "values": [
      {"measurement": "inhibition at 25 µg/mL", "setting": "Rhinovirus Type 56; 25 μg/ml", "value": "≥ 75", "unit": "%"},
      {"measurement": "inhibition at 25 µg/mL", "setting": "Rhinovirus Type 59; 25 μg/ml", "value": "≥ 75", "unit": "%"},
      {"measurement": "inhibition at 25 µg/mL", "setting": "Rhinovirus Type 58; 25 μg/ml", "value": "≥ 75", "unit": "%"},
      {"measurement": "EC50", "setting": "[1]", "value": 0.125, "unit": "µg/mL"},
      {"measurement": "inhibition at 25 µg/mL", "setting": "Rhinovirus Type 17; 25 μg/ml", "value": "≥ 75", "unit": "%"},
      {"measurement": "EC50", "setting": "[2]", "value": 2.5, "unit": "µg/mL"},
      {"measurement": "inhibition at 25 µg/mL", "setting": "Rhinovirus Type 64; 25 μg/ml", "value": "50 to 74", "unit": "%"},
      {"measurement": "inhibition at 25 µg/mL", "setting": "Rhinovirus Type 21; 25 μg/ml", "value": "50 to 74", "unit": "%"},
      {"measurement": "inhibition at 25 µg/mL", "setting": "Rhinovirus Type 81; 25 μg/ml", "value": "≥ 75", "unit": "%"},
      {"measurement": "inhibition at 25 µg/mL", "setting": "Rhinovirus Type 4; 25 μg/ml", "value": "≥ 75", "unit": "%"},
      {"measurement": "inhibition at 25 µg/mL", "setting": "Rhinovirus Type 75; 25 μg/ml", "value": "< 50", "unit": "%"},
      {"measurement": "inhibition at 25 µg/mL", "setting": "Rhinovirus Type 6; 25 μg/ml", "value": "50 to 74", "unit": "%"},
      {"measurement": "Single Oral Dose X^2 (chi-square, deaths vs virus control)", "setting": "Cox A21", "value": 19.383},
      {"measurement": "inhibition at 25 µg/mL", "setting": "Rhinovirus Type 19; 25 μg/ml", "value": "≥ 75", "unit": "%"},
      {"measurement": "inhibition at 25 µg/mL", "setting": "Rhinovirus Type 29; 25 μg/ml", "value": "≥ 75", "unit": "%"},
      {"measurement": "inhibition at 25 µg/mL", "setting": "Hanks Untyped; 25 μg/ml", "value": "≥ 75", "unit": "%"},
      {"measurement": "EC50", "setting": "[3]", "value": 12.5, "unit": "µg/mL"},
      {"measurement": "inhibition at 25 µg/mL", "setting": "Rhinovirus Type 68; 25 μg/ml", "value": "≥ 75", "unit": "%"},
      {"measurement": "inhibition at 25 µg/mL", "setting": "Rhinovirus Type 60; 25 μg/ml", "value": "≥ 75", "unit": "%"}
    ]},
    {"smiles": "CCS(=O)(=O)c1ccc(Oc2ccc(Cl)cc2)nc1", "note": "[Example 42, 2-(4-chlorophenoxy)-5-(ethylsulfonyl)pyridine]", "values": [
      {"measurement": "inhibition at 12.5 µg/mL", "setting": "Rhinovirus Type 56; 12.5 μg/ml", "value": "50 to 74", "unit": "%"},
      {"measurement": "inhibition at 12.5 µg/mL", "setting": "Rhinovirus Type 59; 12.5 μg/ml", "value": "≥ 75", "unit": "%"},
      {"measurement": "inhibition at 12.5 µg/mL", "setting": "Rhinovirus Type 58; 12.5 μg/ml", "value": "≥ 75", "unit": "%"},
      {"measurement": "EC50", "setting": "[1]", "value": 3.12, "unit": "µg/mL"},
      {"measurement": "inhibition at 12.5 µg/mL", "setting": "Rhinovirus Type 17; 12.5 μg/ml", "value": "≥ 75", "unit": "%"},
      {"measurement": "EC50", "setting": "[2]", "value": "≤ 3.12", "unit": "µg/mL"},
      {"measurement": "inhibition at 12.5 µg/mL", "setting": "Rhinovirus Type 64; 12.5 μg/ml", "value": "≥ 75", "unit": "%"},
      {"measurement": "inhibition at 12.5 µg/mL", "setting": "Rhinovirus Type 21; 12.5 μg/ml", "value": "50 to 74", "unit": "%"},
      {"measurement": "inhibition at 12.5 µg/mL", "setting": "Rhinovirus Type 81; 12.5 μg/ml", "value": "≥ 75", "unit": "%"},
      {"measurement": "inhibition at 12.5 µg/mL", "setting": "Rhinovirus Type 4; 12.5 μg/ml", "value": "≥ 75", "unit": "%"},
      {"measurement": "inhibition at 12.5 µg/mL", "setting": "Rhinovirus Type 75; 12.5 μg/ml", "value": "50 to 74", "unit": "%"},
      {"measurement": "inhibition at 12.5 µg/mL", "setting": "Rhinovirus Type 6; 12.5 μg/ml", "value": "≥ 75", "unit": "%"},
      {"measurement": "Single Oral Dose X^2 (chi-square, deaths vs virus control)", "setting": "Cox A21", "value": 46.453},
      {"measurement": "inhibition at 12.5 µg/mL", "setting": "Rhinovirus Type 19; 12.5 μg/ml", "value": "≥ 75", "unit": "%"},
      {"measurement": "inhibition at 12.5 µg/mL", "setting": "Rhinovirus Type 29; 12.5 μg/ml", "value": "≥ 75", "unit": "%"},
      {"measurement": "inhibition at 12.5 µg/mL", "setting": "Hanks Untyped; 12.5 μg/ml", "value": "≥ 75", "unit": "%"},
      {"measurement": "EC50", "setting": "[3]", "value": 6.25, "unit": "µg/mL"},
      {"measurement": "inhibition at 12.5 µg/mL", "setting": "Rhinovirus Type 68; 12.5 μg/ml", "value": "≥ 75", "unit": "%"},
      {"measurement": "inhibition at 12.5 µg/mL", "setting": "Rhinovirus Type 60; 12.5 μg/ml", "value": "≥ 75", "unit": "%"}
    ]}
  ]
}
